Usually Ki stands for the dissociation constant of the complex between target and ligand, obtained from inhibition or displacement. A higher Ki goes with weaker binding. By melting point is commonly meant the temperature of the solid-liquid transition.

From article PMC9316761, “Thiosemicarbazide-Substituted Coumarins as Selective Inhibitors of the Tumor Associated Human Carbonic Anhydrases IX and XII” (Molecules, 2022) come the findings set out here.

In one data set the target is T1, hCA I (Homo sapiens, UniProt P00915).
T1 construct: made in house
As to the kind of experiment: stopped flow CO2 hydrase assay, hCA I. As to conditions: mean from 3 assays, errors ±5–10%; 6 h preincubation. Type of data set: biochemical.

A further data set concerns the target T2, hCA II (Homo sapiens, UniProt P00918).
T2 construct: made in house
The data set is described as follows: stopped flow CO2 hydrase assay, hCA II. As to conditions: mean from 3 assays, errors ±5–10%; 6 h preincubation. Type of data set: biochemical.

The next data set concerns the target T3, hCA IX (Homo sapiens, UniProt Q16790).
T3 construct: made in house
The data set is described as follows: stopped flow CO2 hydrase assay, hCA IX. Type of data set: biochemical. As to conditions: for Ki: mean from 3 assays, errors ±5–10%, 6 h preincubation; for fold loss of hCA IX inhibition potency relative to 14a: Ki ratio versus 14a; for fold more potent on hCA IX than 6-substituted counterpart: 7-substituted versus 6-substituted regioisomer (20a, 22a); for fold increase of hCA IX Ki relative to the 4-iodo derivative 18a: Ki ratio versus 18a.

For a further data set, the target named is T4, hCA XII (Homo sapiens, UniProt O43570).
T4 construct: made in house
The data set is described as follows: stopped flow CO2 hydrase assay, hCA XII. The note with it: for fold more effective on hCA XII than 6-substituted counterpart: 7-substituted versus 6-substituted regioisomer (20a, 21a). Type of data set: biochemical.

Bounds are passed on as bounds.

T4 sequence (O43570 25-354): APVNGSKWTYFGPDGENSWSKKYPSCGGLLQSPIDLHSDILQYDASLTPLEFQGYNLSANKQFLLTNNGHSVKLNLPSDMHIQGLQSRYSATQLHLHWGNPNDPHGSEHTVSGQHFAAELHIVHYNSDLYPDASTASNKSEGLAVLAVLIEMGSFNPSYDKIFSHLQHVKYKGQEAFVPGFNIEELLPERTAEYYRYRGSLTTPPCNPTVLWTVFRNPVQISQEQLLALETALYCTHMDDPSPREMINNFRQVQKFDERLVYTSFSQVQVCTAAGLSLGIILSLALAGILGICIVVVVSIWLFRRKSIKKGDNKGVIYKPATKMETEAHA
T1 sequence (P00915 whole entry): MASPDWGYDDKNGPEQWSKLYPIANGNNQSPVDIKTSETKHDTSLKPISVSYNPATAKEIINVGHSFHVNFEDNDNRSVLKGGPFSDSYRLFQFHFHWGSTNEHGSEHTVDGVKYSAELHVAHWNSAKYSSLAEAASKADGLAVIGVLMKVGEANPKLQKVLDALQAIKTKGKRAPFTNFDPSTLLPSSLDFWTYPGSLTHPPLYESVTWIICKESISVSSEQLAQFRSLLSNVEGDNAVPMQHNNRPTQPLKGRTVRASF

As for `Cc1ccc(NC(=S)NNC(=O)COc2ccc3ccc(=O)oc3c2)cc1` [Compound 15b, N-(p-Tolyl)-2-(2-((2-oxo-2H-chromen-7-yl)oxy)acetyl)hydrazine-1-carbothioamide], the melting point is 147 to 149 °C (dec.). At hCA I, the inhibition constant (Ki) was > 10000 nM. Moreover, at hCA II, the Ki was > 10000 nM. Also, the “fold increase of hCA IX Ki relative to 14b” value at hCA IX (Ki ratio versus 14b) stood at 1.7 fold. The same compound returned a Ki at hCA IX of 78 nM. In addition, on hCA XII, the Ki was 684 nM.
As for `O=C(COc1ccc2ccc(=O)oc2c1)NNC(=S)Nc1ccccc1` [Compound 14b, N-Phenyl-2-(2-((2-oxo-2H-chromen-7-yl)oxy)acetyl)hydrazine-1-carbothioamide], the melting point was in the range of 155 to 156 °C. Further, on hCA I, the inhibitory constant (Ki) is > 10000 nM. Further, the inhibition constant Ki on hCA II is > 10000 nM. Moreover, on hCA IX, the “fold loss of hCA IX inhibition potency relative to 14a” value is 5.2 fold and the Ki was 46 nM. On hCA XII, the inhibition constant (Ki) was 743 nM.
In turn, `O=C(COc1ccc2ccc(=O)oc2c1)NNC(=S)Nc1ccc(I)cc1` [Compound 18b, N-(4-Iodophenyl)-2-(2-((2-oxo-2H-chromen-7-yl)oxy)acetyl)hydrazine-1-carbothioamide] showed a melting point of 164 to 166 °C. Further, at hCA I, the inhibition constant Ki was > 10000 nM. In addition, at hCA II, the inhibitory constant (Ki) was > 10000 nM. Also, on hCA IX, the Ki stood at 721 nM. In addition, the inhibition constant (Ki) on hCA XII is 7.5 nM.
`CSc1ccc(NC(=S)NNC(=O)COc2ccc3ccc(=O)oc3c2)cc1` [Compound 22b, N-(4-(Methylthio)phenyl)-2-(2-((2-oxo-2H-chromen-7-yl)oxy)acetyl)hydrazine-1-carbothioamide]: the melting point was in the range of 163 to 164 °C. Further, the Ki at hCA I was > 10000 nM. Further, on hCA II, the Ki was > 10000 nM. Moreover, on hCA IX, the “fold more potent on hCA IX than 6-substituted counterpart” value is 1.7 fold and the affinity corresponds to a Ki of 33 nM. This compound also returned a Ki on hCA XII of 4.6 nM.
`O=C(COc1ccc2oc(=O)ccc2c1)NNC(=S)Nc1ccc(F)cc1` [Compound 17a, N-(4-Fluorophenyl)-2-(2-((2-oxo-2H-chromen-6-yl)oxy)acetyl)hydrazine-1-carbothioamide]: the melting point lay within 181 to 183 °C. Also, the Ki on hCA I is > 10000 nM. In addition, the Ki at hCA II was > 10000 nM. The compound also displayed an inhibitory constant (Ki) at hCA IX of 39 nM. Moreover, the affinity on hCA XII corresponds to a Ki of 494 nM.
`O=C(COc1ccc2ccc(=O)oc2c1)NNC(=S)Nc1cccc(I)c1` [Compound 19b, N-(3-Iodophenyl)-2-(2-((2-oxo-2H-chromen-7-yl)oxy)acetyl)hydrazine-1-carbothioamide] registered a melting point of 168 to 169 °C. Moreover, the Ki at hCA I is > 10000 nM. For the same compound, the Ki at hCA II is > 10000 nM. The same compound gave an inhibitory constant (Ki) on hCA IX of 9.4 nM. Further, on hCA XII, the affinity corresponds to a Ki of 573 nM.
Consider `O=C(COc1ccc2ccc(=O)oc2c1)NNC(=S)Nc1ccc(C(F)(F)F)cc1` [Compound 20b, N-(4-(Trifluoromethyl)phenyl)-2-(2-((2-oxo-2H-chromen-7-yl)oxy)acetyl)hydrazine-1-carbothioamide], for which the Ki was > 10000 nM at hCA I, > 10000 nM at hCA II, 70 nM at hCA IX and 56.6 nM at hCA XII. Besides, the “fold more potent on hCA IX than 6-substituted counterpart” value at hCA IX amounted to 1.3 fold. Moreover, on hCA XII, the “fold more effective on hCA XII than 6-substituted counterpart” value was found to be 5.4 fold.
On to `O=C(COc1ccc2ccc(=O)oc2c1)NNC(=S)Nc1ccc(F)cc1` [Compound 17b, N-(4-Fluorophenyl)-2-(2-((2-oxo-2H-chromen-7-yl)oxy)acetyl)hydrazine-1-carbothioamide], for which the melting point is 119 to 121 °C (dec.). Also, on hCA I, the Ki is > 10000 nM. Also, the inhibitory constant (Ki) on hCA II is > 10000 nM. Also, the Ki on hCA IX stood at 64 nM. This compound came in with a Ki at hCA XII of 745 nM.
In turn, `O=C(COc1ccc2oc(=O)ccc2c1)NNC(=S)Nc1ccc(I)cc1` [Compound 18a, N-(4-Iodophenyl)-2-(2-((2-oxo-2H-chromen-6-yl)oxy)acetyl)hydrazine-1-carbothioamide] gave a melting point of 160 to 162 °C. Further, the Ki at hCA I was > 10000 nM. In addition, the Ki at hCA II is > 10000 nM. Moreover, on hCA IX, the Ki was found to be 9.6 nM. The affinity on hCA XII corresponds to a Ki of 8.4 nM.
Consider `O=C(COc1ccc2oc(=O)ccc2c1)NNC(=S)Nc1cccc(I)c1` [Compound 19a, N-(3-Iodophenyl)-2-(2-((2-oxo-2H-chromen-6-yl)oxy)acetyl)hydrazine-1-carbothioamide], for which the melting point lay within 144 to 146 °C. On hCA I, the inhibition constant (Ki) is > 10000 nM. For the same compound, at hCA II, the inhibition constant (Ki) is > 10000 nM. Besides, the affinity on hCA IX, expressed as Ki, was 9.6 nM. At hCA XII, the Ki came to 79 nM.
`O=C(COc1ccc2oc(=O)ccc2c1)NNC(=S)Nc1ccc(Cl)cc1` [Compound 16a, N-(4-Chlorophenyl)-2-(2-((2-oxo-2H-chromen-6-yl)oxy)acetyl)hydrazine-1-carbothioamide] gave a melting point of 163 to 165 °C. For the same compound, at hCA I, the Ki was > 10000 nM. On hCA II, the inhibitory constant (Ki) is > 10000 nM. The affinity at hCA IX corresponds to a Ki of 48 nM. Further, the Ki on hCA XII turned out to be 608 nM.
The compound `O=C(COc1ccc2ccc(=O)oc2c1)NNC(=S)Nc1ccc(Cl)cc1` [Compound 16b, N-(4-Chlorophenyl)-2-(2-((2-oxo-2H-chromen-7-yl)oxy)acetyl)hydrazine-1-carbothioamide] gave a melting point of 202 to 203 °C. The Ki on hCA I is > 10000 nM. Moreover, the inhibitory constant (Ki) at hCA II is > 10000 nM. The compound also returned a Ki on hCA IX of 55 nM. On hCA XII, this compound gave an inhibition constant Ki of 866 nM.
As to `O=C(COc1ccc2oc(=O)ccc2c1)NNC(=S)Nc1cccc([N+](=O)[O-])c1` [Compound 21a, N-(3-Nitrophenyl)-2-(2-((2-oxo-2H-chromen-6-yl)oxy)acetyl)hydrazine-1-carbothioamide], the melting point fell in the range of 210 to 212 °C. Moreover, the inhibitory constant (Ki) at hCA I was > 10000 nM. Further, on hCA II, the Ki is > 10000 nM. Moreover, the affinity at hCA IX corresponds to a Ki of 71 nM. This compound had an inhibition constant (Ki) at hCA XII of 328 nM.
`O=C(COc1ccc2ccc(=O)oc2c1)NNC(=S)Nc1cccc([N+](=O)[O-])c1` [Compound 21b, N-(3-Nitrophenyl)-2-(2-((2-oxo-2H-chromen-7-yl)oxy)acetyl)hydrazine-1-carbothioamide] gave a melting point of 214 to 215 °C. The Ki on hCA I is > 10000 nM. Moreover, at hCA II, the inhibition constant Ki was > 10000 nM. Besides, on hCA IX, the inhibitory constant (Ki) stood at 9.1 nM. Also, on hCA XII, the inhibitory constant (Ki) turned out to be 8.6 nM and the “fold more effective on hCA XII than 6-substituted counterpart” value was found to be 38.2 fold.
Compound `Cc1ccc(NC(=S)NNC(=O)COc2ccc3oc(=O)ccc3c2)cc1` [Compound 15a, N-(p-Tolyl)-2-(2-((2-oxo-2H-chromen-6-yl)oxy)acetyl)hydrazine-1-carbothioamide] came in with a melting point of 167 to 169 °C. On hCA I, the inhibition constant (Ki) was > 10000 nM. For the same compound, at hCA II, the inhibition constant (Ki) was > 10000 nM. At hCA IX, the “fold loss of hCA IX inhibition potency relative to 14a” value was 26.6 fold and the inhibition constant (Ki) amounted to 234 nM. At hCA XII, this compound came in with a Ki of 709 nM.
In the case of `CSc1ccc(NC(=S)NNC(=O)COc2ccc3oc(=O)ccc3c2)cc1` [Compound 22a, N-(4-(Methylthio)phenyl)-2-(2-((2-oxo-2H-chromen-6-yl)oxy)acetyl)hydrazine-1-carbothioamide], the melting point fell in the range of 148 to 150 °C. Further, at hCA I, the Ki was > 10000 nM. Also, the inhibition constant (Ki) on hCA II is > 10000 nM. Further, on hCA IX, the “fold increase of hCA IX Ki relative to the 4-iodo derivative 18a” value was 5.9 fold and affinity was put at a Ki of 57 nM. At hCA XII, this compound returned an inhibition constant Ki of 4 nM. The “fold less effective on hCA IX than on hCA XII” value at hCA XII (Ki hCA IX / Ki hCA XII) is 14 fold.
In the case of `N#Cc1ccc(NC(=S)NNC(=O)COc2ccc3ccc(=O)oc3c2)cc1` [Compound 23b, N-(4-Cyanophenyl)-2-(2-((2-oxo-2H-chromen-7-yl)oxy)acetyl)hydrazine-1-carbothioamide], the melting point was in the range of 224 to 226 °C. On hCA I, the inhibition constant Ki is > 10000 nM. In addition, on hCA II, the Ki is > 10000 nM. The same compound gave a Ki at hCA IX of 437 nM. Moreover, the inhibition constant Ki at hCA XII was determined as 473 nM.
In the case of `O=C(COc1ccc2oc(=O)ccc2c1)NNC(=S)Nc1ccccc1` [Compound 14a, N-Phenyl-2-(2-((2-oxo-2H-chromen-6-yl)oxy)acetyl)hydrazine-1-carbothioamide], the melting point lay within 173 to 175 °C. Also, the inhibitory constant (Ki) at hCA I was > 10000 nM. In addition, the Ki on hCA II was > 10000 nM. Further, the “fold more potent on hCA IX than on hCA XII” value at hCA IX (Ki hCA XII / Ki hCA IX) is 84 fold. On hCA IX, this compound displayed a Ki of 8.8 nM. The compound further gave an inhibition constant (Ki) on hCA XII of 739 nM.
Regarding `O=C(COc1ccc2oc(=O)ccc2c1)NNC(=S)Nc1ccc(C(F)(F)F)cc1` [Compound 20a, N-(4-(Trifluoromethyl)phenyl)-2-(2-((2-oxo-2H-chromen-6-yl)oxy)acetyl)hydrazine-1-carbothioamide], the inhibition constant (Ki) at hCA I is > 10000 nM; on hCA II, > 10000 nM; on hCA IX, 92 nM; at hCA XII, 306 nM. Moreover, the “fold increase of hCA IX Ki relative to the 4-iodo derivative 18a” value on hCA IX was determined as 9.6 fold.
